Assay results taken from patent US9364480B2, “Pharmaceutical composition for preventing or treating cancer, containing enoblock as active ingredient” (GWANGJU INSTITUTE OF SCIENCE AND TECHNOLOGY, priority 2012, dated 2016).

Key:
[1] = tested on: Bcl-Xl expression in HCT116 cancer cells; test: Bcl-Xl Western blot; format: cell-based; settings: 48 h treatment
Experimental: FIG. 7. […] (b) Microscopic images of crystal violet stained HCT116 cells invaded onto the transwell inserts (scale bar=100 μm). […] (d) Microscopic images of crystal violet stained HCT116 cells migrated onto the transwell inserts (scale bar=100 μm). […] Cells were treated with 10 nM taxol and 10 nM vincristine, with or without 10 μM ENOblock. Error=SD; *=P<0.05 between the groups indicated on the graph. […] For the AKT Western blot, cells were treated with ENOblock for 24 h; for the Bcl-Xl Western blot, cells were treated with ENOblock for 48 h.

[2] = tested on: pre-adipocytes undergoing adipogenesis; test: Adipogenesis lipid accumulation (Oil Red O staining); format: cell-based

NCCOCCOCCNC(=O)Cc1ccc(Nc2nc(NCc3ccc(F)cc3)nc(NCC3CCCCC3)n2)cc1 [ENOblock]
Bcl-Xl expression [1]: decreased the expression of AKT and Bcl-Xl | lipid accumulation during adipogenesis (Oil Red O, microscopy) ([2]; 10 μM): inhibited lipid accumulation | quantification of lipid accumulation during adipogenesis ([2]; ENOblock treatment with adipogenic cocktail): blocked lipid accumulation during adipogenesis
